According to patent US12383631B2, “Immune antigen specific IL-18 immunocytokines and uses thereof” (Bright Peak Therapeutics AG, priority 2022, dated 2025):

Assays:
[1] = test system: PD-1 positive (transduced) KG-1 cells; assay: IFN gamma secretion assay in PD-1 transduced KG-1 cells (Example 11); type: cell-based, human; settings: ratio of EC50 in PD-1 positive and parental KG-1 cells
Protocol: The KG-1 cell line was used to generate a PD-1 expressing cell line and furthermore, to measure IFNγ release upon incubation with TL-18 variants and corresponding TL-18 immunocytokines.
PD-1 expressing cell line generation: Briefly, KG-1 cells were transduced using lentiviral particles carrying the human PD-1 gene (PDCD1 NM_005018; Origene, CAT #: RC210364L3V) at a MOI (Multiplicity of Infection) of 30. Spinfection was performed at 1260 g during 90 min at 37° C. in the presence of 5 μg/ml of Polybrene and 10 mM of HEPES in complete culture media (RPMI, 10% FBS, 1% L-Glutamine). Five days after transduction, puromycin at a final concentration of 1 μg/ml was added to select for PD-1 positive cells. For culture maintenance, puromycin concentration was decreased to 0.5 μg/ml. Stable and homogenous expression of PD-1 was verified by surface staining (BD Pharmingen, #557860).
IFNγ release was assessed in PD-1 positive (transduced) KG-1 cells, as well as in the parental PD-1 negative cells. 0.5×10^5 cells were seeded into a 96-well U-bottom plate in culture media (RPMI, 10% FBS, […]) and stimulated with IL-18 variants/ICs for 20-24 h. The test items were diluted to 100 nM in culture medium, followed by 7 10-fold serial dilutions. The lowest concentration assessed was […]. After incubation, IFNγ release was measured using the LEGENDplex custom human mix and match KIT (Biolegend LEGENDplex™ Human IFN-γ Capture Bead B5, 13×#740942, LEGENDplex™ P 1 Essential Immune Response Panel Detection Abs, #740931, LEGENDplex™ Buffer Set A #740368). To this end, cell culture supernatant was collected and diluted 1:1 with Assay Buffer. Fluorescence measurements were done with a Quanteon Flow Cytometer from Acea Biosciences. For analysis, MFI values (median fluorescence intensity) were exported and plotted against concentrations used. The EC50 values (half maximal effective concentration) were calculated based on a variable slope and four parameter analysis using GraphPad PRISM software version 9.

[2] = target: T1, human IL-18 binding protein isoform a (IL-18BPa) (Homo sapiens, UniProt O95998); assay: Cellular IL-18 Binding protein resistance assay in NK-92 cells (Example 13); type: cell-based; settings: NK92 cells, IL-18 analyte 1 nM final, IL-18BPa titrated, 1 ng/ml IL-12; read-out: IC50 IL-18BP-mediated inhibition of IFNγ secretion
T1 sequence (O95998 31-194): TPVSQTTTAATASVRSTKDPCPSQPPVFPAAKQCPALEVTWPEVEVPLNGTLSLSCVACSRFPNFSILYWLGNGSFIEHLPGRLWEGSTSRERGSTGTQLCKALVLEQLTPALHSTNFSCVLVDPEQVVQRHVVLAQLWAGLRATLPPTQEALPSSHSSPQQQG
Protocol: The NK cell line NK-92 derived from a patient with lymphoma (ATCC, Cat #CRL-2407) was cultured in aMEM medium supplemented with 20% FCS-Glutamax, 25 μM B-mercaptoEthanol, and 100 IU/ml of recombinant Human Interleukin-2 (TL-2). On the day of experiment, cells were harvested and washed with aMEM medium without IL-2. After counting, cells were seeded at 100 000 cells/well in a 384 well titer plate and incubated at 37° C./5% CO2. Sixteen 2-fold serial dilutions of Fc fused human IL-18 binding protein isoform a (IL-18BPa; R&D systems, Cat #119-BP) were prepared in aMEM medium-1 ng/ml IL-12 containing 2 nM of each IL-18 variants and were added to the NK-92 cells. Final IL-18 analytes concentration was 1 nM and final IL-18BPa concentrations ranged from to 566 nM down to 17 pM.
After 16-20 h incubation at 37° C./5% CO2, 5 μl of supernatant were carefully transferred to a 384 microwells OPTIplate (Perkin Elmer; Cat #6007270) and Interferon-gamma (IFNγ) levels measured using the Human IFNγ AlphaLISA Assay Kit (Perkin Elmer, Cat #AL217C). Briefly, 10 μl of 2.5× AlphaLISA Anti-IFNγ acceptor beads and biotinylated Antibody Anti-IFNγ mix were added to the 5 μl of NK-92 supernatants and incubated for 1 h at room temperature under shaking. Under subdued light, 2.5 μl of 2× streptavidin (SA) donor beads were pipetted in each well and incubated for 30 min at room temperature under shaking. AlphaLisa signal was then measured on an Enspire plate reader (Perkin Elmer) using 680 and 615 nm as excitation and emission wavelengths respectively. Half maximal inhibitory concentration (IC50) was calculated based on a variable slope, four parameter analysis using GraphPad PRISM software.

| Substance | PD-1^pos/PD-1^neg EC50 ratio [1] | IC50 [2] |
| --- | --- | --- |
| SEQ ID NO: 31: IL-18 polypeptide: C38A, C76A, C127A | 1.2 | 0.282 nM |
| SEQ ID NO: 1: native IL-18 wild-type sequence [reference compound] | 1.298 | 0.781 nM |
